Source: article PMC8635417 (Communications Biology, 2021)

Legend:
M2R [1] = details: 1 mM ligand, buffer exchange without ligand; cited from earlier work
M2R [2] = molecular target: T1, M2R (Homo sapiens, UniProt P08172); test: NanoBiT G-protein dissociation assay (Gi activation); assay type: cell-based; details: HEK293A cells expressing M2R and NanoBiT-Gi1; for Gi-protein activity relative to ACh (in words): Fig. 3a
T1 construct: expressed in transfected cells; host or cells: HEK293A
T1 sequence (P08172 1-466): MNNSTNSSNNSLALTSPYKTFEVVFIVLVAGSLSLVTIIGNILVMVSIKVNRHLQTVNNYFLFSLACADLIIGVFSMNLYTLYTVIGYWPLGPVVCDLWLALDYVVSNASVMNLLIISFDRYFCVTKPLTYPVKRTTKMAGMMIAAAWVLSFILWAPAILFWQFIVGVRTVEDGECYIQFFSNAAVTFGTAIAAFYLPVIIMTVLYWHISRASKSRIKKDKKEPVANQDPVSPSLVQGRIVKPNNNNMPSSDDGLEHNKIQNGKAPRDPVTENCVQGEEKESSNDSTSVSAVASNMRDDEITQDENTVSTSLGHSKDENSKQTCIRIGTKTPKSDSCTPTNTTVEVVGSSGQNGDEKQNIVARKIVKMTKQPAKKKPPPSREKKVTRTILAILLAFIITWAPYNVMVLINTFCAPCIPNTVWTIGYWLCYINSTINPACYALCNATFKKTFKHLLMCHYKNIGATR
Procedure: M2R-induced G-protein dissociation was measured by a NanoBiT-G-protein dissociation assay, in which the interaction between a Gα subunit and a Gβγ subunit was monitored by the NanoBiT system (Promega). Specifically, a NanoBiT-Gi1 protein consisting of Gαi1 subunit fused with a large fragment (LgBiT) at the α-helical domain and an N-terminally small fragment (SmBiT)-fused Gγ2 subunit with a C68S mutation was expressed along with untagged Gβ1 subunit and M2R. HEK293A cells were seeded in a 10-cm culture dish at a concentration of 2 × 10^5 cells mL^−1 (10 mL per well in DMEM (Nissui) supplemented with 10% fetal bovine serum (Gibco), glutamine, penicillin, and streptomycin), 1 day before transfection. Transfection solution was prepared by combining 25 µL (per dish hereafter) of polyethylenimine (PEI) Max solution (1 mg mL^−1; Polysciences), 1 mL of Opti-MEM (Thermo Fisher Scientific), and a plasmid mixture consisting of 1 µg M2R (or an empty plasmid for mock transfection), 500 ng LgBiT-containing Gαi1 subunit, 2.5 µg Gβ1 subunit, and 2.5 µg SmBiT-fused Gγ2 subunit (C68S). After an incubation for 1 day, the transfected cells were harvested with 0.5 mM EDTA-containing Dulbecco’s PBS, centrifuged and suspended in 10 mL of HBSS containing 0.01% bovine serum albumin (BSA; fatty acid–free grade; SERVA) and 5 mM HEPES (pH 7.4) (assay buffer). The cell suspension was dispensed in a white 96-well plate at a volume of 80 µL per well and loaded with 20 µL of 50 µM coelenterazine (Carbosynth) diluted in the assay buffer. After a 2 h incubation at room temperature, the plate was measured for baseline luminescence (Spectramax L, Molecular Devices) and a titrated test ligand (20 µL; […] of final concentrations) was manually added. The plate was immediately read at room temperature for the following 5 min as a kinetics mode, at measurement intervals of 20 s. The luminescence counts over 3–5 min after ligand addition were averaged and normalized to the initial count. The fold-change values were further normalized to that of vehicle-treated samples and used to plot the G-protein dissociation response. Using the Prism 8 software (GraphPad Prism), the G-protein dissociation signals were fitted to a four-parameter sigmoidal concentration-response curve.

M2R [3] = test: Ligand binding-induced difference ATR-FTIR spectroscopy, amide-I band; design: species or system human; details: lipid-reconstituted M2R-BRIL, 293 K; for population of active-like M2R conformation from amide-I band ratio (in words): 1 mM ligand; for ligand efficacy class suggested by amide-I spectral features: H2O, compared with Scop- and NMS-bound spectra
Procedure: Red and purple lines correspond to ACh- and Atro-bound spectra, respectively. To quantitatively examine the change in the amide-I band specific to ligand efficacy, the ratio between the band strength of (2)1656 (+)/(1)1666 (−) cm^−1 of ACh-bound spectra at high frequency and (2)1656 (+)/(3)1640 (−) cm^−1 of ACh-bound spectra at low frequency is calculated and reported as efficacy rate. b Ligand-dependent spectral changes of amide-I band originating from C=O stretch of α-helix in 1700–1620 cm^−1 region. Red, orange, and purple lines correspond to agonist-, partial agonist-, and antagonist-bound spectra, respectively. […] The error values were calculated from three replicate experiments. Cyan dotted line indicates the value = 1.
The ratio of the amide-I band was assumed to be the ligand efficacy (Fig. 2b, c). Strikingly, all agonists have an amide-I band ratio >1. The amide-I band ratio for both the partial agonists and the antagonists were <1, with the exception of Xano.
A 2 μL aliquot of the lipid-reconstituted M2R suspensions was placed on the surface of a silicon ATR crystal (three internal total reflection, Smith Detection, UK. After it was dried in a gently natural drying, the sample was rehydrated with a solvent containing 200 mM phosphate (pH 7.5) buffer with 140 mM NaCl, 3 mM MgCl2 at a flow rate of 0.6 mL min^−1 through a flow cell, of which the temperature was maintained at 20 °C by circulating water. ATR-FTIR spectra were first recorded at 2 cm^−1 resolution, using an FTIR spectrometer (Bio-rad FTS7000, Agilent, CA, USA) equipped with a liquid nitrogen-cooled MCT detector (an average of 768 interferograms). After the FTIR spectrum had been recorded in the second buffer with 1 mM ligand, the difference FTIR spectrum was calculated by subtracting the data obtained for the first and second buffer. The cycling procedure was repeated two to seven times, and the difference spectra were calculated as the average of the presence minus absence spectra of ligand. The spectral contributions of the unbound ligand, the protein/lipid shrinkage, and water/buffer components were corrected (Supplementary Figure 2–5).

M2R [4] = test: Ligand dissociation kinetics from time-course ATR-FTIR (amide-I band); assay type: binding, human; details: 1 mM ligand washed out by buffer exchange, 0.6 mL min-1, 20 °C; single exponential fit
Procedure: Each ligand (1 mM concentration) is added at 30 min time point and is washed out at 90 min time point by exchanging to the buffer without ligand at a flow rate of 0.6 mL min^−1 through a flow cell, of which the temperature is maintained at 20 °C by circulating water. […] Ligand dissociation phase is highlighted by light blue. b Time trace of the integrated absorbance signal at dissociation phase in the amide-I band for each ligand. […] Dotted lines represent the fitting curve obtained by single exponential function.
After the FTIR spectrum had been recorded in the second buffer with 1 mM ligand, the difference FTIR spectrum was calculated by subtracting the data obtained for the first and second buffer. The cycling procedure was repeated two to seven times, and the difference spectra were calculated as the average of the presence minus absence spectra of ligand. The spectral contributions of the unbound ligand, the protein/lipid shrinkage, and water/buffer components were corrected (Supplementary Figure 2–5).
All functional and statistical data were analyzed using GraphPad Prism v.9.0 (Graphpad Software) and shown as mean ± s.e.m. from at least three independent experiments. Dissociation kinetics curves were evaluated with a single exponential function.

M2R [5] = tested on: M2R; design: method as in PMID 23441648; details: super agonist of M2R; cited from earlier work

Structure (SMILES): CC(=O)OCC[N+](C)(C)C [ACh, acetylcholine]
- amide-I band intensity during dissociation phase after buffer exchange (M2R [1]): decreased gradually

Structure (SMILES): CN1[C@@H]2CC[C@H]1C[C@@H](OC(=O)C(CO)c1ccccc1)C2 (some centres unmarked) [Atro, atropine]
- amide-I band intensity during dissociation phase after buffer exchange (M2R [1]): did not decrease

Structure (SMILES): C[N+](C)(C)CCOC(N)=O [Carb, Carbamylcholine]
- Gi-protein activity relative to ACh (in words) (M2R [2]): almost identical Gi-protein activity as ACh

Structure (SMILES): CC(C)[N+]1(C)[C@@H]2CC[C@H]1C[C@@H](OC(=O)C(CO)c1ccccc1)C2 (some centres unmarked) [Ipra, Ipratropium]
- Gi-dissociation activity (Emax normalized to ACh) (M2R [2]; Span normalized to ACh): 6.3 % of ACh
- population of active-like M2R conformation from amide-I band ratio (in words) (M2R [3]): higher ratio of active conformation than Atro and Scop

Structure (SMILES): C[N+](C)(C)CC#CCOC1=NOCC1 [Ixo, Iperoxo]
- Gi-protein activity relative to ACh (in words) (M2R [2]): higher G-protein activation than ACh
- dissociation kinetics (koff) from M2R (in words) (M2R [4]): slowest dissociation kinetics
- potency relative to ACh (M2R [5]): 100 fold

Structure (SMILES): C[N+](C)(C)CC#CCOC(=O)Nc1cccc(Cl)c1 [McN, McN-A-343]
- Gi-protein activity relative to ACh (in words) (M2R [2]): decreased Gi signalling relative to ACh
- dissociation kinetics (koff) from M2R (in words) (M2R [4]): fast dissociation kinetics

Structure (SMILES): CC(=O)OC(C)C[N+](C)(C)C (centres unmarked) [Meta, Metacholine]
- Gi-protein activity relative to ACh (in words) (M2R [2]): almost identical Gi-protein activity as ACh

Structure (SMILES): CCCC[N+]1(C)C2CC(OC(=O)C(CO)c3ccccc3)CC1C1OC12 (centres unmarked) [NBS, N-butylscopolamine]
- ligand efficacy class suggested by amide-I spectral features (M2R [3]): antagonist

Structure (SMILES): CC[N+]1(C)[C@@H]2CC(OC(=O)[C@H](CO)c3ccccc3)C[C@H]1[C@@H]1O[C@@H]12 (some centres unmarked) [Oxitro, Oxitropium]
- ligand efficacy class suggested by amide-I spectral features (M2R [3]): inverse agonist

Structure (SMILES): CN1[C@@H]2C[C@@H](OC(=O)[C@H](CO)c3ccccc3)C[C@H]1[C@@H]1O[C@@H]12 [Scop, Scopolamine]
- Gi-protein activity relative to ACh (in words) (M2R [2]): undetectable

Structure (SMILES): CCCCCCOc1nsnc1C1=CCCN(C)C1 [Xano, Xanomeline]
- Gi-protein activity relative to ACh (in words) (M2R [2]): decreased Gi signalling relative to ACh
- population of active-like M2R conformation from amide-I band ratio (in words) (M2R [3]): higher population of active-like M2R conformation
- dissociation kinetics (koff) from M2R (in words) (M2R [4]): extremely slow
